This test deals with rTgAPN2 (recombinant aminopeptidase N2, TgAPN2) (Toxoplasma gondii, UniProt A0A7J6K0L4). Kind of test: residual H-Ala-MCA hydrolysis, fluorescence. Conditions: 30 min pre-incubation at 37 °C, substrate H-Ala-MCA. In kind it is biochemical.

For the molecule `CC(C)C[C@H](NC(=O)[C@@H](O)[C@H](N)Cc1ccccc1)C(=O)O` [bestatin], the “residual enzyme activity (%)” value is recorded as “The activity of rTgAPN2 was reduced in a dose-dependent manner in the presence of bestatin or amastatin”.

(Values after PMC5573830 (The Journal of Veterinary Medical Science, 2017).)
